Here are results for 20 compounds from patent publication US20250228239A1, “MOLECULES HAVING PESTICIDAL UTILITY, AND INTERMEDIATES, COMPOSITIONS, AND PROCESSES, RELATED THERETO” (priority 2024, published 2025).

The test system of assay [1] is Beet Armyworm (Spodoptera exigua, LAPHEG). As to the kind of experiment: Bioassays on Beet Armyworm (BAW), 128-well diet tray assay. The following applies: Spodoptera exigua. The class given is in vivo. The gist of the method: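 Mortality of second-instar larvae (1–5/well) on artificial diet treated with 50 μg/cm^2 compound, read after 5–7 days at 25° C.; values are means of eight wells.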

The subject of assay [2] is Cabbage Looper (Trichoplusia ni, TRIPNI). The experiment in a line: Bioassays on Cabbage Looper (CL), 128-well diet tray assay. Format: in vivo. The following applies: Trichoplusia ni. In a few lines: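 Second-instar larvae (1–5 per well) placed on artificial diet surface-treated with 50 μg/cm^2 test molecule applied in 90:10 acetone-water and dried. Held at 25° C., 14:10 light-dark, for five to seven days. Percent mortality scored per well and averaged over eight wells.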

Where [3] appears, read: Table ABC: Biological Results, species BAW, read-out: BAW.
Where [4] appears, read: Table ABC: Biological Results, species CL, read-out: CL.
Setting [5] is: Beet Armyworm, rating class, read-out: BAW.
Where [6] appears, read: Cabbage Looper, rating class, read-out: CL.
[7] abbreviates: Beet Armyworm, Table ABC / ABC-DP rating, read-out: BAW rating.
Where [8] appears, read: Cabbage Looper, Table ABC / ABC-DP rating, read-out: CL rating.

The structures appear in SMILES notation. Read-outs that look alike come from different tables or passages of the source.

Regarding `O=C(Nc1ccc(F)c(NC(=O)C(F)F)c1F)c1cc(NC(=O)[C@H]2[C@H](c3cc(Cl)c(Cl)c(Cl)c3)C2(Cl)Cl)cc(F)c1Cl` [F1335, 2-Chloro-5-((1R,3R)-2,2-dichloro-3-(3,4,5-trichlorophenyl)cyclopropane-1-carboxamido)-N-(3-(2,2-difluoroacetamido)-2,4-difluorophenyl)-3-fluorobenzamide], the pest or weed control at 50 µg/cm2 in assay [1] (setting [3]) and in assay [2] (setting [4]) was 50 to 100% each time.
As to `O=C(Nc1c(F)cc(NC(=O)C(Cl)Cl)cc1F)c1cc(NC(=O)[C@H]2[C@H](c3ccc(Cl)c(Cl)c3)C2(Cl)Cl)ccc1Cl` [F1272, 2-Chloro-5-((1R,3R)-2,2-dichloro-3-(3,4-dichlorophenyl)cyclopropane-1-carboxamido)-N-(4-(2,2-dichloroacetamido)-2,6-difluorophenyl)benzamide], the pest or weed control at 50 µg/cm2 in assay [1] (setting [3]) and in assay [2] (setting [4]) was 50 to 100% in each case.
For `CC(=O)Nc1c(F)ccc(NC(=O)c2cc(NC(=O)[C@H]3[C@H](c4cc(Cl)cc(Cl)c4)C3(Cl)Cl)cc(F)c2Cl)c1F` [F1502, N-(3-Acetamido-2,4-difluorophenyl)-2-chloro-5-((1R,3R)-2,2-dichloro-3-(3,5-dichlorophenyl)cyclopropane-1-carboxamido)-3-fluorobenzamide], the pest or weed control at 50 µg/cm2 in assay [1] (setting [5]) and in assay [2] (setting [6]) was 50 to 100% each time.
In the case of `O=C(Nc1ccc(F)c(O)c1F)c1cc(NC(=O)[C@H]2[C@H](c3cc(Cl)cc(Cl)c3)C2(Cl)Cl)ccc1Cl` (relative stereo) [F1203, trans-2-chloro-5-(2,2-dichloro-3-(3,5-dichlorophenyl)cyclopropane-1-carboxamido)-N-(2,4-difluoro-3-hydroxyphenyl)benzamide], the pest or weed control at 50 µg/cm2 lay in the range of 0 to 50% in assay [1] (setting [3]) and 50 to 100% in assay [2] (setting [4]).
As to `O=C(Nc1cc(NC(=O)C(F)F)c(F)cc1F)c1cc(NC(=O)[C@H]2[C@H](c3cc(Cl)c(Cl)c(Cl)c3)C2(Cl)Cl)cc(F)c1Cl` [F1404, 2-Chloro-5-((1R,3R)-2,2-dichloro-3-(3,4,5-trichlorophenyl)cyclopropane-1-carboxamido)-N-(5-(2,2-difluoroacetamido)-2,4-difluorophenyl)-3-fluorobenzamide], the pest or weed control at 50 µg/cm2 in assay [1] (setting [5]) and in assay [2] (setting [6]) was 50 to 100% in each case.
In the case of `CC(C(=O)Nc1c(F)ccc(NC(=O)c2cc(NC(=O)[C@H]3[C@H](c4ccc(F)c(C(F)(F)F)c4)C3(Cl)Cl)ccc2Cl)c1F)C(F)(F)F` (stereo partly drawn) [F1832, 2-Chloro-5-((1R,3R)-2,2-dichloro-3-(4-fluoro-3-(trifluoromethyl)phenyl)cyclopropane-1-carboxamido)-N-(2,4-difluoro-3-(3,3,3-trifluoro-2-methylpropanamido)phenyl)benzamide], the pest or weed control at 50 µg/cm2 in assay [1] (setting [7]) and in assay [2] (setting [8]) was 50 to 100% throughout.
Take `CC(=O)Nc1cc(NC(=O)c2cc(NC(=O)[C@H]3[C@H](c4cc(Cl)c(Cl)c(Cl)c4)C3(Cl)Cl)ccc2Cl)c(F)cc1F` [F1517, N-(5-Acetamido-2,4-difluorophenyl)-2-chloro-5-((1R,3R)-2,2-dichloro-3-(3,4,5-trichlorophenyl)cyclopropane-1-carboxamido)benzamide]: the pest or weed control at 50 µg/cm2 in assay [1] (setting [5]) and in assay [2] (setting [6]) was 50 to 100% each time.
With `CCCC(=O)Nc1c(F)ccc(NC(=O)c2cc(NC(=O)[C@H]3[C@H](c4ccc(Cl)c(C(F)(F)F)c4)C3(Cl)Cl)ccc2Cl)c1F` [F1659, N-(3-Butyramido-2,4-difluorophenyl)-2-chloro-5-((1R,3R)-2,2-dichloro-3-(4-chloro-3-(trifluoromethyl)phenyl)cyclopropane-1-carboxamido)benzamide], the pest or weed control at 50 µg/cm2 in assay [1] (setting [5]) and in assay [2] (setting [6]) was 50 to 100% in each case.
Regarding `COCCN(C(=O)OC(C)(C)C)c1ccc(NC(=O)c2cc(NC(=O)[C@H]3[C@H](c4cc(Cl)cc(Cl)c4)C3(Cl)Cl)ccc2Cl)c(C)c1` (relative stereo) [F1159, trans-tert-Butyl-(4-(2-chloro-5-(2,2-dichloro-3-(3,5-dichlorophenyl)cyclopropane-1-carboxamido)benzamido)-3-methylphenyl)(2-methoxyethyl)carbamate], the pest or weed control at 50 µg/cm2 in assay [1] (setting [3]) and in assay [2] (setting [4]) was 50 to 100% throughout.
Consider `O=C(CCC(F)(F)C(F)(F)F)Nc1c(F)ccc(NC(=O)c2cc(NC(=O)[C@H]3[C@H](c4ccc(F)c(Cl)c4)C3(Cl)Cl)ccc2Cl)c1F` [F1865, 2-Chloro-5-((1R,3R)-2,2-dichloro-3-(3-chloro-4-fluorophenyl)cyclopropane-1-carboxamido)-N-(2,4-difluoro-3-(4,4,5,5,5-pentafluoropentanamido)phenyl) benzamide], for which the pest or weed control at 50 µg/cm2 in assay [1] (setting [7]) and in assay [2] (setting [8]) was 50 to 100% throughout.
Consider `O=C(Nc1ccc(F)c(NC(=O)C(F)F)c1F)c1cc(NC(=O)[C@H]2[C@H](c3cc(Cl)c(Cl)c(Br)c3)C2(Cl)Cl)ccc1Cl` (relative stereo) [F1623, trans-5-(3-(3-Bromo-4,5-dichlorophenyl)-2,2-dichlorocyclopropane-1-carboxamido)-2-chloro-N-(3-(2,2-difluoroacetamido)-2,4-difluorophenyl)benzamide], for which the pest or weed control at 50 µg/cm2 in assay [1] (setting [5]) and in assay [2] (setting [6]) was 50 to 100% each time.
In the case of `Cc1cc(NC(=O)[C@H]2[C@H](c3ccc(Cl)c(Cl)c3)C2(Cl)Cl)cc(C(=O)Nc2ccc(F)c(NC(=O)C(F)(F)F)c2F)c1Cl` [F1485, 2-Chloro-5-((1R,3R)-2,2-dichloro-3-(3,4-dichlorophenyl)cyclopropane-1-carboxamido)-N-(2,4-difluoro-3-(2,2,2-trifluoroacetamido)phenyl)-3-methylbenzamide], the pest or weed control at 50 µg/cm2 in assay [1] (setting [5]) and in assay [2] (setting [6]) was 50 to 100% throughout.
In the case of `Cc1cc(NC(=O)[C@H]2[C@H](c3ccc(F)c(C(F)(F)F)c3)C2(Cl)Cl)cc(C(=O)Nc2c(F)ccc(NC(=O)C(F)F)c2F)c1Cl` [F1468, 2-Chloro-5-((1R,3R)-2,2-dichloro-3-(4-fluoro-3-(trifluoromethyl)phenyl)cyclopropane-1-carboxamido)-N-(3-(2,2-difluoroacetamido)-2,6-difluorophenyl)-3-methylbenzamide], the pest or weed control at 50 µg/cm2 in assay [1] (setting [5]) and in assay [2] (setting [6]) was 50 to 100% each time.
For the compound `O=C(Nc1cc(NC(=O)C(F)F)c(F)cc1F)c1cc(NC(=O)[C@H]2[C@H](c3ccc(F)c(Cl)c3)C2(Cl)Cl)cc(F)c1Cl` [F1400, 2-Chloro-5-((1R,3R)-2,2-dichloro-3-(3-chloro-4-fluorophenyl)cyclopropane-1-carboxamido)-N-(5-(2,2-difluoroacetamido)-2,4-difluorophenyl)-3-fluorobenzamide], the pest or weed control at 50 µg/cm2 in assay [1] (setting [5]) and in assay [2] (setting [6]) was 50 to 100% each time.
As to `Cc1cc(NC(=O)[C@H]2[C@H](c3ccc(Cl)c(Cl)c3)C2(Cl)Cl)cc(C(=O)Nc2c(F)ccc(N)c2F)c1Cl` [F1426, N-(3-Amino-2,6-difluorophenyl)-2-chloro-5-((1R,3R)-2,2-dichloro-3-(3,4-dichlorophenyl)cyclopropane-1-carboxamido)-3-methylbenzamide], the pest or weed control at 50 µg/cm2 in assay [1] (setting [5]) and in assay [2] (setting [6]) was 50 to 100% throughout.
As for `Nc1cc(NC(=O)c2cc(NC(=O)[C@H]3[C@H](c4cc(Cl)cc(Cl)c4)C3(Cl)Cl)cc(F)c2Cl)c(F)cc1F` [F1399, N-(5-Amino-2,4-difluorophenyl)-2-chloro-5-((1R,3R)-2,2-dichloro-3-(3,5-dichlorophenyl)cyclopropane-1-carboxamido)-3-fluorobenzamide], the pest or weed control at 50 µg/cm2 in assay [1] (setting [5]) and in assay [2] (setting [6]) was 50 to 100% each time.
Take `O=C(Nc1cc(F)c(NC(=O)C(Cl)(Cl)Cl)c(F)c1)c1cc(NC(=O)[C@H]2[C@H](c3ccc(Cl)c(Cl)c3)C2(Cl)Cl)ccc1Cl` (relative stereo) [F1146, trans-2-Chloro-5-(2,2-dichloro-3-(3,4-dichlorophenyl)cyclopropane-1-carboxamido)-N-(3,5-difluoro-4-(2,2,2-trichloroacetamido)phenyl)benzamide]: the pest or weed control at 50 µg/cm2 in assay [1] (setting [3]) and in assay [2] (setting [4]) was 50 to 100% throughout.
`O=C(Nc1c(F)ccc(NC(=O)C(F)F)c1F)c1cc(NC(=O)[C@H]2[C@H](c3ccc(Cl)c(Cl)c3)C2(Cl)Cl)cc(F)c1Cl` [F1345, 2-Chloro-5-((1R,3R)-2,2-dichloro-3-(3,4-dichlorophenyl)cyclopropane-1-carboxamido)-N-(3-(2,2-difluoroacetamido)-2,6-difluorophenyl)-3-fluorobenzamide]: the pest or weed control at 50 µg/cm2 in assay [1] (setting [3]) and in assay [2] (setting [4]) was 50 to 100% each time.
For the compound `CC(OC(F)F)C(=O)Nc1c(F)ccc(NC(=O)c2cc(NC(=O)[C@H]3[C@H](c4ccc(F)c(C(F)(F)F)c4)C3(Cl)Cl)ccc2Cl)c1F` (stereo partly drawn) [F1828, 2-Chloro-5-((1R,3R)-2,2-dichloro-3-(4-fluoro-3-(trifluoromethyl)phenyl)cyclopropane-1-carboxamido)-N-(3-(2-(difluoromethoxy)propanamido)-2,4-difluorophenyl)benzamide], the pest or weed control at 50 µg/cm2 in assay [1] (setting [7]) and in assay [2] (setting [8]) was 50 to 100% each time.
As for `CC(=O)Nc1ccc(F)c(NC(=O)c2cc(NC(=O)[C@H]3[C@H](c4ccc(Cl)c(Cl)c4)C3(Cl)Cl)cc(F)c2Cl)c1F` [F1522, N-(3-Acetamido-2,6-difluorophenyl)-2-chloro-5-((1R,3R)-2,2-dichloro-3-(3,4-dichlorophenyl)cyclopropane-1-carboxamido)-3-fluorobenzamide], the pest or weed control at 50 µg/cm2 in assay [1] (setting [5]) and in assay [2] (setting [6]) was 50 to 100% throughout.
